Here are results for 26 compounds from US11976072B2, “Diacylglycerol kinase modulating compounds” (priority 2021, dated 2024).

Broadly, the EC50 is the concentration that produces a half-maximal response. The term IC50 denotes the concentration at which inhibition is half-maximal.

Test [1] relates to Jurkat NFκB-luciferase cells. Briefly: Jurkat NFκB-Luciferase Assay. Type of test: cell-based. As to conditions: Homo sapiens; Jurkat NFκB-luciferase cells activated with anti-CD3 antibody (OKT3), 2.5 hrs at 37° C.; geometric mean; read-out: DGK NFKb Luciferase EC50. As to the method: The day after, the excess antibody was washed out five times with 100 ul/well of assay medium (RPMI supplemented with 10% fetal bovine serum) using a Biotek EL406 instrument and leaving 20 ul of residual volume in each well. Jurkat NFκB-luciferase cells (Promega #) were harvested and diluted to 1 million cells/ml in assay medium. […] Thirty microliters of medium containing the Jurkat NFκB-luciferase cells were then dispensed using a Biotek MicroFlo instrument in each well of the compound-containing plate. […] Forty microliters of One-Glo Ex (Promega) was then added to the assay mixture and luciferase activity was read on a Envision plate reader 7 minutes later.

The target in test [2] is human DGKα (Homo sapiens, UniProt P23743). In words: DGKα Biochemical Activity Assay (ADP-Glo).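 Also: luminescent detection of ADP produced as DGKα phosphorylates DAG to phosphatidic acid, IC50 from four-parameter nonlinear curve fit.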 As to conditions: recombinant DGKα 1 nM, 100 μM ATP, 18:1 DAG/POPS/octylglucoside micelles, 1 hour at 25° C.; geometric mean; read-out: HTBS DGKa 1X ATP KM IC50. For orientation: ADP-Glo turns the ADP formed in a reaction into a luminescent signal.
Sequence of human DGKα (P23743 whole entry): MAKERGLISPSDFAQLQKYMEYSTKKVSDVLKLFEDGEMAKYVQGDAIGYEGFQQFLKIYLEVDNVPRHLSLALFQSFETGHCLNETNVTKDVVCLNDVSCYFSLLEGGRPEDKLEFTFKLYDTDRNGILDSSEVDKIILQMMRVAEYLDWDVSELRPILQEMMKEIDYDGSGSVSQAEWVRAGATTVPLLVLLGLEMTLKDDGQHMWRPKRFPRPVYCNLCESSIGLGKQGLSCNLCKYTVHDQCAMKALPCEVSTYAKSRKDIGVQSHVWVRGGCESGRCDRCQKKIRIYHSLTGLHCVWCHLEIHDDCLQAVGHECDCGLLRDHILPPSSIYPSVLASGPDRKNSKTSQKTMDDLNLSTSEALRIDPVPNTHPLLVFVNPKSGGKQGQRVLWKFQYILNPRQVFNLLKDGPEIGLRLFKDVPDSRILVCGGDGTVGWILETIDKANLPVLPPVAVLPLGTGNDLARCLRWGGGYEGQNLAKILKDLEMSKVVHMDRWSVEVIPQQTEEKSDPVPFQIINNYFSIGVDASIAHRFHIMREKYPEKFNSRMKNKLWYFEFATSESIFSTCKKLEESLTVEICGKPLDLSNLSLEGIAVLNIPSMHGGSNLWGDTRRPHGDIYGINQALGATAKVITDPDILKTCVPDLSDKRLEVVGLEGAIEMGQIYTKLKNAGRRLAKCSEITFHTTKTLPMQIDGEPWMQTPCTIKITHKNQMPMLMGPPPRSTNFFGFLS
From the text: Alternatively, the enzymatic activity of human DGKα was monitored in a biochemical assay in the presence or absence of compounds and using micelles containing 18:1 Diacylglycerol (DAG), 16:0-18:1 PS (POPS) and Octylglucoside as substrate. DGKα activity led to conversion of DAG and ATP to Phosphatidic Acid (PA) and ADP. Levels of ADP were monitored by bioluminescence using the ADP-Glo Kinase Assay (Promega) and were indicative of DGKα activity.
Recombinant DGKα (Carna Biosciences) in assay buffer (5 μL in 50 mM MOPS [3-(N-morpholino) propanesulfonic acid], pH 7.2; 0.0025% Triton X-100; 1 mM dithiothreitol; 5 mM MgCl2, 200 μM ATP) was added to the compound-containing plate and was incubated for 15 minutes at 25° C. […] The reaction mixture was incubated at 25° C. for 1 hour. ADP-Glo Reagent (10 μL, 10 mM Mg added) provided by the kit was added to each well and incubated at 25° C. for 40 minutes. Then, 20 μL of Kinase Detection Reagent was added and incubated at 25° C. for 40 minutes. Luciferase activity of each well was measured via luminescence on an Envision plate reader (PerkinElmer).
Least squares curve fittings were performed using a four-parameter variable slope nonlinear regression model. […] IC50 values from multiple experiments were averaged by geometric mean and the standard deviation was calculated.

On to `Cc1nnc2nc(N3CCOCc4c(N5CC6CC(C5)C6(F)F)cccc43)c3c(F)cccc3n12` [Example 153], for which the half-maximal effective concentration (EC50) in test [1] amounted to 3.98 nM. The 50% inhibitory concentration (IC50) in test [2] is 82.8 nM.
The matching figures for `COc1ccc(C#Cc2cccc3c2COCCN3c2nc3nnc(C)n3c3cccc(F)c23)cn1` [Example 222, 1-(6-fluoro-1-methyl-[1,2,4]triazolo[4,3-a]quinazolin-5-yl)-6-((6-methoxypyridin-3-yl)ethynyl)-1,2,3,5-tetrahydrobenzo[e][1,4]oxazepine]: 0.718 nM and 6.29 nM.
The matching figures for `Cc1nnc2nc(N3CCCCc4c(C#CC5(C)COC5)cccc43)c3c(F)c(F)ccc3n12` [Example 185, 6,7-Difluoro-1-methyl-5-[6-[2-(3-methyloxetan-3-yl)ethynyl]-2,3,4,5-tetrahydro-1-benzazepin-1-yl]-[1,2,4]triazolo[4,3-a]quinazoline]: 1.09 nM and 4.58 nM.
The matching figures for `Cc1nnc2nc(N3CCCCc4c(C#CC(C)(C)NC(=O)C5(C(F)(F)F)CC5)cccc43)c3c(F)cccc3n12` [Example 183, N-(4-(1-(6-fluoro-1-methyl-[1,2,4]triazolo[4,3-a]quinazolin-5-yl)-2,3,4,5-tetrahydro-1H-benzo[b]azepin-6-yl)-2-methylbut-3-yn-2-yl)-1-(trifluoromethyl)cyclopropane-1-carboxamide]: 11.8 nM and 28.4 nM.
Take `Cc1nccn1C(C)(C)C#Cc1cccc2c1CCCN2c1nc2nnc(C)n2c2cccc(F)c12` [Example 76, 6-fluoro-1-methyl-5-(5-(3-methyl-3-(2-methyl-1H-imidazol-1-yl)but-1-yn-1-yl)-3,4-dihydroquinolin-1(2H)-yl)-[1,2,4]triazolo[4,3-a]quinazoline]: the EC50 in test [1] is 8.01 nM. Moreover, the half-inhibitory concentration (IC50) in test [2] stood at 13.4 nM.
The matching figures for `Cc1nnc2nc(N3CCCOc4c(C#CC5CC5)cccc43)c3c(F)c(F)ccc3n12` [Example 116]: 1.07 nM and 5.19 nM.
Take `CCC(O)C#Cc1cc(F)cc(N(CC(F)F)c2nc3nnc(C)n3c3ccc(F)c(F)c23)c1` (stereo not shown) [Example 239, 1-[3-[2,2-difluoroethyl-(6,7-difluoro-1-methyl-[1,2,4]triazolo[4,3-a]quinazolin-5-yl)amino]-5-fluoro-phenyl]pent-1-yn-3-ol]: the EC50 in test [1] turned out to be 31.6 nM. In addition, the IC50 in test [2] was 24.8 nM.
The matching figures for `Cc1nnc2nc(N(CC(F)F)c3ccnc(C#CC4(C)CC4)c3)c3c(F)c(F)ccc3n12` [Example 91, N-(2,2-difluoroethyl)-6,7-difluoro-1-methyl-N-(2-((1-methylcyclopropyl)ethynyl)pyridin-4-yl)-[1,2,4]triazolo[4,3-a]quinazolin-5-amine]: 3.83 nM and 3.43 nM.
The matching figures for `Cc1nnc2nc(N3CCCc4c(N5CCN(C(=O)C(F)F)CC5)cccc43)c3c(F)cccc3n12` [Example 158, 2,2-difluoro-1-[4-[1-(6-fluoro-1-methyl-[1,2,4]triazolo[4,3-a]quinazolin-5-yl)-3,4-dihydro-2H-quinolin-5-yl]piperazin-1-yl]ethanone]: 49.3 nM and 281 nM.
For `Cc1nnc2nc(N3CCOCc4c(C#CC(C)(C)C(F)(F)F)cccc43)c3c(F)c(F)ccc3n12` [Example 207, 1-(6,7-Difluoro-1-methyl-[1,2,4]triazolo[4,3-a]quinazolin-5-yl)-6-(4,4,4-trifluoro-3,3-dimethyl-but-1-ynyl)-3,5-dihydro-2H-4,1-benzoxazepine], the EC50 in test [1] was 4.04 nM. The concentration for half-maximal inhibition (IC50) in test [2] amounted to 14.9 nM.
The matching figures for `Cc1nnc2nc(N3CCCCc4c(C#CC5(C)COC5)cccc43)c3c(F)cccc3n12` [Example 193]: 0.871 nM and 2.85 nM.
The matching figures for `Cc1nnc2nc(N3CCCc4c(C#CC(C)(C)c5ncco5)cccc43)c3c(F)cccc3n12` [Example 79, 2-(4-(1-(6-fluoro-1-methyl-[1,2,4]triazolo[4,3-a]quinazolin-5-yl)-1,2,3,4-tetrahydroquinolin-5-yl)-2-methylbut-3-yn-2-yl)oxazole]: 2.54 nM and 22.6 nM.
The matching figures for `Cc1nnc2nc(N(CC(F)F)c3cccc(C#CC4(C)CC4)c3F)c3cc(F)ccc3n12` [Example 56, N-(2,2-difluoroethyl)-7-fluoro-N-[2-fluoro-3-[2-(1-methylcyclopropyl)ethynyl]phenyl]-1-methyl-[1,2,4]triazolo[4,3-a]quinazolin-5-amine]: 0.805 nM and 13.5 nM.
In the case of `Cc1nnc2nc(N(CC(F)F)c3cc(F)cc(-c4ccc(C(C)(C)O)cc4)c3)c3c(F)cccc3n12` [Example 128, 2-(3′-((2,2-difluoroethyl)(6-fluoro-1-methyl-[1,2,4]triazolo[4,3-a]quinazolin-5-yl)amino)-5′-fluoro-[1,1′-biphenyl]-4-yl)propan-2-ol], the 50% effective concentration (EC50) in test [1] turned out to be 7.48 nM. Further, the IC50 in test [2] worked out at 20.8 nM.
As to `Fc1cc(C#CC2(C(F)(F)F)CC2)cc(N(CC(F)F)c2nc3nncn3c3c(Cl)cc(F)cc23)c1` [Example 48, 9-chloro-N-(2,2-difluoroethyl)-7-fluoro-N-[3-fluoro-5-[2-[1-(trifluoromethyl)cyclopropyl]ethynyl]phenyl]-[1,2,4]triazolo[4,3-a]quinazolin-5-amine], the EC50 in test [1] is 3.02 nM. Moreover, in test [2], the half-maximal inhibitory concentration (IC50) is 5.73 nM.
The matching figures for `Cc1nnc2nc(N3CCCc4c(C#Cc5cnn(C)c5)cccc43)c3c(F)cccc3n12` [Example 233, 6-fluoro-1-methyl-5-[5-[2-(1-methylpyrazol-4-yl)ethynyl]-3,4-dihydro-2H-quinolin-1-yl]-[1,2,4]triazolo[4,3-a]quinazoline]: 2.15 nM and 6.74 nM.
The matching figures for `Cc1nnc2nc(N3CCCCc4c(C#CC5(C(F)F)CC5)cncc43)c3c(F)c(F)ccc3n12` [Example 8, 5-(6-((1-(difluoromethyl)cyclopropyl)ethynyl)-2,3,4,5-tetrahydro-1H-pyrido[3,4-b]azepin-1-yl)-6,7-difluoro-1-methyl-[1,2,4]triazolo[4,3-a]quinazoline]: 1.65 nM and 17.7 nM.
The matching figures for `Cc1nnc2nc(N3CCCc4c(C#CC(C)(C)NC(=O)C5(C(F)(F)F)CC5)cccc43)c3c(F)cccc3n12` [Example 151, N-(4-(1-(6-fluoro-1-methyl-[1,2,4]triazolo[4,3-a]quinazolin-5-yl)-1,2,3,4-tetrahydroquinolin-5-yl)-2-methylbut-3-yn-2-yl)-1-(trifluoromethyl)cyclopropane-1-carboxamide]: 3.59 nM and 2.41 nM.
Turning to `CC(C)(C#N)C#Cc1cccc2c1CCCN2c1nc2nncn2c2cccc(F)c12` [Example 243, 4-[1-(6-fluoro-[1,2,4]triazolo[4,3-a]quinazolin-5-yl)-3,4-dihydro-2H-quinolin-5-yl]-2,2-dimethyl-but-3-ynenitrile], the EC50 in test [1] amounted to 2.33 nM. In test [2], the concentration for half-maximal inhibition (IC50) was found to be 3.14 nM.
As to `CC(C)(C#Cc1cccc2c1COCCN2c1nc2nncn2c2ccc(F)c(F)c12)C(F)(F)F` [Example 204, 1-(6,7-Difluoro-[1,2,4]triazolo[4,3-a]quinazolin-5-yl)-6-(4,4,4-trifluoro-3,3-dimethyl-but-1-ynyl)-3,5-dihydro-2H-4,1-benzoxazepine], in test [1], the EC50 is 0.121 nM. The half-maximal inhibitory concentration (IC50) in test [2] was 3.83 nM.
The matching figures for `Fc1cccc2c1c(N1CCCOc3c(C#CC4(C(F)(F)F)CC4)cccc31)nc1nncn12` [Example 121]: 4.95 nM and 22.8 nM.
The matching figures for `Cc1nnc2nc(N3CCCCc4c(C#CC5(C)CC5)cncc43)c3cc(F)ccc3n12` [Example 5, 7-fluoro-1-methyl-5-(6-((1-methylcyclopropyl)ethynyl)-2,3,4,5-tetrahydro-1H-pyrido[3,4-b]azepin-1-yl)-[1,2,4]triazolo[4,3-a]quinazoline]: 1.19 nM and 14.5 nM.
The matching figures for `Cc1nnc2nc(N3CCCc4c(C#CC(C)(C)CO)cccc43)c3cc(F)ccc3n12` [Example 235, 4-[1-(7-fluoro-1-methyl-[1,2,4]triazolo[4,3-a]quinazolin-5-yl)-3,4-dihydro-2H-quinolin-5-yl]-2,2-dimethyl-but-3-yn-1-ol]: 8.26 nM and 6.85 nM.
Turning to `Fc1cc(C#CC2(C(F)F)CC2)cc(N(CC(F)F)c2nc3nncn3c3c(Cl)cc(F)cc23)c1` [Example 47, 9-chloro-N-(2,2-difluoroethyl)-N-[3-[2-[1-(difluoromethyl)cyclopropyl]ethynyl]-5-fluoro-phenyl]-7-fluoro-[1,2,4]triazolo[4,3-a]quinazolin-5-amine], the 50% effective concentration (EC50) in test [1] is 3.92 nM. Also, the half-maximal inhibitory concentration (IC50) in test [2] was 18.8 nM.
The matching figures for `Cc1nnc2nc(N(CC(F)F)c3cccc(C#CC(C)(C)C(F)F)c3F)c3c(F)cccc3n12` [Example 53, N-[3-(4,4-difluoro-3,3-dimethyl-but-1-ynyl)-2-fluoro-phenyl]-N-(2,2-difluoroethyl)-6-fluoro-1-methyl-[1,2,4]triazolo[4,3-a]quinazolin-5-amine]: 0.792 nM and 18.6 nM.
The matching figures for `CCC1(C#Cc2cccc3c2COCCN3c2nc3nnc(C)n3c3cccc(F)c23)CC1` [Example 195, 6-[2-(1-Ethylcyclopropyl)ethynyl]-1-(6-fluoro-1-methyl-[1,2,4]triazolo[4,3-a]quinazolin-5-yl)-3,5-dihydro-2H-4,1-benzoxazepine]: 0.382 nM and 13.3 nM.
